# Laboratory results: article PMC11456916, “A screen for cell envelope stress uncovers an inhibitor of prolipoprotein diacylglyceryl transferase, Lgt, in Escherichiacoli” (iScience, 2024)
# System: 356 CRISPRi constructs in E. coli ΔtolC-pore
# Assay: CRISPRi collection fitness screen with sub-inhibitory compound
# Assay type: cell-based
# Details: for Growth represented as mean colony biomass: 1μg/ml MAC0452936, 6ng/ml LolCDE-in-1, 250 ng/ml Vancomycin, 7 ng/ml CHIR090, n=4; for Growth, mean colony biomass (n=4): + 6ng/ml LolCDE-in-1
# Excerpt: To that end, we screened the E. coli CRISPRi collection in the ΔtolC-pore genetic background with a sub-inhibitory concentration of MAC-0452936 and measured the fitness of all 356 CRISPRi mutants (Figure 4C and Data S4). […] To that end, we introduced either an arabinose inducible copy of lgt supplied on the pCHAP9231 plasmid[48] or the pBAD19s plasmid as a control into E. coli ΔtolC-pore and tested the potency of MAC-0452936 (Figure 4E). […] To test this hypothesis, we constructed E. coli ΔlgtΔtolC-pore with pCHAP9231[48] so that lgt expression was driven solely by arabinose from the plasmid.
# For screens of the CRISPRi collection with MAC-0452936, the mobile CRISPRi collection was first conjugated into E. coli ΔtolC-pore as previously described.[30] The CRISPRi collection was then arrayed on solid agar at 1536 density using the Singer-ROTOR, such that each CRISPRi strain is arrayed in technical quadruplicate. […] The screens were conducted without CRISPRi induction, using just the 5–10% basal knockdown from the pFD152 CRISPRi plasmid. Following overnight growth, plates were imaged using high-resolution scanners (Epson Perfection v750), and colony biomass for each mutant was determined.
# [1] = sub-inhibitory (¼ MIC) concentration, LB agar, basal knockdown
compound,measurement,setting,value
Fc1ccc(COc2cccc(-c3[nH]ncc3-c3ccncc3)c2)cc1 [LolCDE-in-1],Growth represented as mean colony biomass,gRNA accA,1.008
same,"Growth, mean colony biomass (n=4)",gRNA aceF,1.072
same,"Growth, mean colony biomass (n=4)",gRNA alaS,1.101
same,"Growth, mean colony biomass (n=4)",gRNA argS,1.113
same,"Growth, mean colony biomass (n=4)",gRNA asnS,1.091
same,"Growth, mean colony biomass (n=4)",gRNA bamA,1.074
same,"Growth, mean colony biomass (n=4)",gRNA bamD,0.9928
same,"Growth, mean colony biomass (n=4)",gRNA bioA,1.016
same,"Growth, mean colony biomass (n=4)",gRNA can,1.04
same,Growth represented as mean colony biomass,gRNA cca,1
same,Growth represented as mean colony biomass,gRNA coaA,1.117
same,"Growth, mean colony biomass (n=4)",gRNA csrA,0.5912
same,Growth represented as mean colony biomass,gRNA cydA,1.002
same,Growth represented as mean colony biomass,gRNA cydX,0.9564
same,Growth represented as mean colony biomass,gRNA dapD,0.9627
same,Growth represented as mean colony biomass,gRNA dapE,0.9407
same,Growth represented as mean colony biomass,gRNA der,0.9198
same,Growth represented as mean colony biomass,gRNA dfp,0.9029
same,"Growth, mean colony biomass (n=4)",gRNA dnaC,1.011
same,Growth represented as mean colony biomass,gRNA dnaE,1.003
same,Growth represented as mean colony biomass,gRNA dnaN,0.9294
same,Growth represented as mean colony biomass,gRNA dnaX,0.8532
same,"Growth, mean colony biomass (n=4)",gRNA dut,1.113
same,Growth represented as mean colony biomass,gRNA eno,1.0061
same,Growth represented as mean colony biomass,gRNA era,0.9669
same,Growth represented as mean colony biomass,gRNA fabA,0.9879
same,Growth represented as mean colony biomass,gRNA fabG,0.9717
same,Growth represented as mean colony biomass,gRNA fabI,0.9771
same,Growth represented as mean colony biomass,gRNA fdx,0.998
same,Growth represented as mean colony biomass,gRNA fldA,1.014
same,"Growth, mean colony biomass (n=4)",gRNA folA,1.074
same,Growth represented as mean colony biomass,gRNA folB,1.004
same,"Growth, mean colony biomass (n=4)",gRNA folC,0.9924
same,Growth represented as mean colony biomass,gRNA folE,1.028
same,Growth represented as mean colony biomass,gRNA folP,1.013
same,Growth represented as mean colony biomass,gRNA frr,0.8456
same,"Growth, mean colony biomass (n=4)",gRNA ftsA,0.866
same,Growth represented as mean colony biomass,gRNA gapA,0.9875
same,"Growth, mean colony biomass (n=4)",gRNA glmS,1.023
same,Growth represented as mean colony biomass,gRNA glmU,0.9948
same,Growth represented as mean colony biomass,gRNA gltX,1.01
same,"Growth, mean colony biomass (n=4)",gRNA glyA,0.9609
same,Growth represented as mean colony biomass,gRNA groS,0.8911
same,Growth represented as mean colony biomass,gRNA grpE,0.9325
same,Growth represented as mean colony biomass,gRNA guaA,1.005
same,"Growth, mean colony biomass (n=4)",gRNA hemD,1.064
same,Growth represented as mean colony biomass,gRNA hemG,0.9487
same,Growth represented as mean colony biomass,gRNA hemH,0.9202
same,Growth represented as mean colony biomass,gRNA hemL,0.9936
same,Growth represented as mean colony biomass,gRNA higA,0.9523
same,Growth represented as mean colony biomass,gRNA hisS,0.9867
same,Growth represented as mean colony biomass,gRNA holD,1.037
same,Growth represented as mean colony biomass,gRNA hscA,1.068
same,"Growth, mean colony biomass (n=4)",gRNA infA,1.13
same,Growth represented as mean colony biomass,gRNA infC,0.9943
same,Growth represented as mean colony biomass,gRNA iscU,0.9298
same,Growth represented as mean colony biomass,gRNA ispB,0.9724
same,Growth represented as mean colony biomass,gRNA ispF,0.9965
same,"Growth, mean colony biomass (n=4)",gRNA leuS,1.148
same,"Growth, mean colony biomass (n=4)",gRNA lexA,0.4661
same,Growth represented as mean colony biomass,gRNA lolC,0.5845
same,"Growth, mean colony biomass (n=4)",gRNA lptA,1.047
same,"Growth, mean colony biomass (n=4)",gRNA lptB,0.9337
same,Growth represented as mean colony biomass,gRNA lptC,0.8997
same,Growth represented as mean colony biomass,gRNA lptE,0.9982
same,Growth represented as mean colony biomass,gRNA lptF,0.9678
same,Growth represented as mean colony biomass,gRNA lptG,1.0135
same,Growth represented as mean colony biomass,gRNA lpxC,0.9296
same,Growth represented as mean colony biomass,gRNA lpxD,0.9894
same,"Growth, mean colony biomass (n=4)",gRNA mnmA,1.137
same,"Growth, mean colony biomass (n=4)",gRNA mrdB,0.9351
same,Growth represented as mean colony biomass,gRNA mreB,0.9708
same,Growth represented as mean colony biomass,gRNA mreC,0.8551
same,"Growth, mean colony biomass (n=4)",gRNA msbA,1.057
same,"Growth, mean colony biomass (n=4)",gRNA mukF,0.8694
same,Growth represented as mean colony biomass,gRNA murB,1.046
same,Growth represented as mean colony biomass,gRNA murC,0.881
same,"Growth, mean colony biomass (n=4)",gRNA murI,0.5015
same,"Growth, mean colony biomass (n=4)",gRNA nadK,1.043
same,Growth represented as mean colony biomass,gRNA nusB,0.9929
same,Growth represented as mean colony biomass,gRNA plsB,0.8854
same,"Growth, mean colony biomass (n=4)",gRNA prmC,1.031
same,Growth represented as mean colony biomass,gRNA proS,1.0017
same,"Growth, mean colony biomass (n=4)",gRNA psd,1.234
same,"Growth, mean colony biomass (n=4)",gRNA pssA,0.9781
same,"Growth, mean colony biomass (n=4)",gRNA ptsI,1.151
same,Growth represented as mean colony biomass,gRNA racR,0.9577
same,"Growth, mean colony biomass (n=4)",gRNA rho,1.25
same,Growth represented as mean colony biomass,gRNA ribA,0.9663
same,Growth represented as mean colony biomass,gRNA ribC,0.899
same,"Growth, mean colony biomass (n=4)",gRNA ribD,1.034
same,Growth represented as mean colony biomass,gRNA ribF,0.9681
same,Growth represented as mean colony biomass,gRNA rimM,1.015
same,Growth represented as mean colony biomass,gRNA rluD,1.0361
same,"Growth, mean colony biomass (n=4)",gRNA rne,1.086
same,Growth represented as mean colony biomass,gRNA rpe,1.032
same,"Growth, mean colony biomass (n=4)",gRNA rplA,1.044
same,Growth represented as mean colony biomass,gRNA rplD,0.9769
same,Growth represented as mean colony biomass,gRNA rplE,0.973
same,Growth represented as mean colony biomass,gRNA rplJ,0.9047
same,Growth represented as mean colony biomass,gRNA rplO,0.9645
same,"Growth, mean colony biomass (n=4)",gRNA rplP,1.111
same,Growth represented as mean colony biomass,gRNA rplQ,1.063
same,Growth represented as mean colony biomass,gRNA rplS,0.9823
same,"Growth, mean colony biomass (n=4)",gRNA rplV,1.159
same,"Growth, mean colony biomass (n=4)",gRNA rplX,1.003
same,Growth represented as mean colony biomass,gRNA rplY,1.022
same,"Growth, mean colony biomass (n=4)",gRNA rpmC,1.247
same,Growth represented as mean colony biomass,gRNA rpmH,0.9499
same,Growth represented as mean colony biomass,gRNA rpmI,0.8822
same,"Growth, mean colony biomass (n=4)",gRNA rpoC,0.9718
same,"Growth, mean colony biomass (n=4)",gRNA rpoE,1.012
same,Growth represented as mean colony biomass,gRNA rpoH,1.025
same,"Growth, mean colony biomass (n=4)",gRNA rpsC,0.9823
same,"Growth, mean colony biomass (n=4)",gRNA rpsD,1.397
same,Growth represented as mean colony biomass,gRNA rpsE,1.159
same,Growth represented as mean colony biomass,gRNA rpsF,1.092
same,"Growth, mean colony biomass (n=4)",gRNA rpsG,0.9387
same,Growth represented as mean colony biomass,gRNA rpsH,1.028
same,"Growth, mean colony biomass (n=4)",gRNA rpsK,1.066
same,"Growth, mean colony biomass (n=4)",gRNA rpsL,0.9811
same,"Growth, mean colony biomass (n=4)",gRNA rpsM,1.056
same,"Growth, mean colony biomass (n=4)",gRNA rpsR,1.049
same,"Growth, mean colony biomass (n=4)",gRNA rpsT,1.1909
same,Growth represented as mean colony biomass,gRNA rsgA,0.9518
same,Growth represented as mean colony biomass,gRNA safA,0.9369
same,"Growth, mean colony biomass (n=4)",gRNA secA,1.053
same,Growth represented as mean colony biomass,gRNA secY,1.019
same,Growth represented as mean colony biomass,gRNA serS,1.011
same,Growth represented as mean colony biomass,gRNA ssb,1.001
same,Growth represented as mean colony biomass,gRNA sucA,0.955
same,"Growth, mean colony biomass (n=4)",gRNA suhB,0.9525
same,Growth represented as mean colony biomass,gRNA tilS,0.9992
same,Growth represented as mean colony biomass,gRNA tonB,0.9792
same,Growth represented as mean colony biomass,gRNA trmD,0.9503
same,Growth represented as mean colony biomass,gRNA tsaB,1.056
same,Growth represented as mean colony biomass,gRNA tsaD,0.9679
same,"Growth, mean colony biomass (n=4)",gRNA tsaE,1
same,Growth represented as mean colony biomass,gRNA tsf,1.027
same,Growth represented as mean colony biomass,gRNA tusE,1.013
same,Growth represented as mean colony biomass,gRNA tyrS,1.017
same,Growth represented as mean colony biomass,gRNA ubiB,0.9814
same,Growth represented as mean colony biomass,gRNA ubiD,0.9742
same,"Growth, mean colony biomass (n=4)",gRNA waaA,1.024
same,Growth represented as mean colony biomass,gRNA ydaS,0.9646
same,Growth represented as mean colony biomass,gRNA ydcD,0.9635
same,Growth represented as mean colony biomass,gRNA ydhL,0.9757
same,"Growth, mean colony biomass (n=4)",gRNA yedN,1.025
same,Growth represented as mean colony biomass,gRNA yejM,1.046
same,Growth represented as mean colony biomass,gRNA yffS,1.013
same,Growth represented as mean colony biomass,gRNA ygeF,0.9624
same,"Growth, mean colony biomass (n=4)",gRNA ygeN,1.008
same,Growth represented as mean colony biomass,gRNA yidC,0.8393
same,Growth represented as mean colony biomass,gRNA ymfE,0.903
same,Growth represented as mean colony biomass,gRNA ymiB,0.9243
same,"Growth, mean colony biomass (n=4)",gRNA yqeL,1.1914
same,Growth represented as mean colony biomass,gRNA yqgF,0.9509
same,"Growth, mean colony biomass (n=4)",gRNA zipA,1.134
same,"growth defect of CRISPRi strains for the compound's molecular target (LolCDE complex and LpxC, respectively)",[1],strongest growth defect
same,growth defect of the lgt CRISPRi mutant in the presence of compound,[1],did not demonstrate a growth defect
